Assay results taken from patent US20090022806A1, “Nanoparticle and polymer formulations for thyroid hormone analogs, antagonists and formulations and uses thereof” (priority 2006, published 2009).

Tested on: chick chorioallantoic membrane (CAM)
Test: Chick chorioallantoic membrane (CAM) assay of angiogenesis
Type: in vivo
Conditions: 10^−7-10^−9 M
Experimental: Chorioallantoic membrane (CAM) Model of Angiogenesis: In vivo Neovascularization was examined by methods described previously. 9-12 Ten-day-old chick embryos were purchased from SPAFAS (Preston, Conn.) and incubated at 37° C. with 55% relative humidity. A hypodermic needle was used to make a small hole in the shell concealing the air sac, and a second hole was made on the broad side of the egg, directly over an avascular portion of the embryonic membrane that was identified by candling. A false air sac was created beneath the second hole by the application of negative pressure at the first hole, causing the CAM to separate from the shell. A window approximately 1.0 cm 2 was cut in the shell over the dropped CAM with a small-crafts grinding wheel (Dremel, division of Emerson Electric Co.), allowing direct access to the underlying CAM. FGF2 (1 μg/mL) was used as a standard proangiogenic agent to induce new blood vessel branches on the CAM of 10-day-old embryos. Sterile disks of No. 1 filter paper (Whatman International) were pretreated with 3 mg/mL cortisone acetate and 1 mmol/L PTU and air dried under sterile conditions. Thyroid hormone, hormone analogues, FGF2 or control solvents, and inhibitors were then applied to the disks and the disks allowed to dry. The disks were then suspended in PBS and placed on growing CAMs. […] At 24 hours, the MAPK cascade inhibitor PD 98059 was also added to CAMs topically by means of the filter disks.
After incubation at 37° C. with 55% relative humidity for 3 days, the CAM tissue directly beneath each filter disk was resected from control and treated CAM samples. Tissues were washed 3× with PBS, placed in 35-mm Petri dishes (Nalge Nunc), and examined under an SV6 stereomicroscope (Zeiss) at ×50 magnification. Digital images of CAM sections exposed to filters were collected using a 3-charge-coupled device color video camera system (Toshiba) and analyzed with Image-Pro software (Media Cybernetics). The number of vessel branch points contained in a circular region equal to the area of each filter disk were counted. One image was counted in each CAM preparation, and findings from 8 to 10 CAM preparations were analyzed for each treatment condition (thyroid hormone or analogues, FGF2, FGF2 antibody, PD 98059). In addition, each experiment was performed 3 times. The resulting angiogenesis index is the mean±SEM of new branch points in each set of samples.
Ten-day-old chick embryos were purchased £tom SPAFAS (Preston, Conn.) and were incubated at 37° C. with 55% relative humidity. A hypodermic needle was used to make a small hole in the blunt end of the egg and a second hole was made on the broad side of the egg, directly over an avascular portion of the embryonic membrane. Mild suction was applied to the first hole to displace the air sac and drop the CAM away from the shell. Using a Dremel model craft drill (Dremel, Racine, Wis.), a approx. 1.0 cm^2 window was cut in the shell over the false air sac, allowing access to the CAM. Sterile disks of No. 1 filter paper (Whatman, Clifton, N.J.) were pretreated with 3 mg/ml cortisone acetate and 1 mMm propylthiouracil and air dried under sterile conditions. […] The disks were then suspended in PBS and placed on growing CAMS. After incubation for 3 days, the CAM beneath the filter disk was resected and rinsed with PBS. Each membrane was placed in a 35 mm Petri dish and examined under an SV6 stereo-microscope at 50× magnification. Digital images were captured and analyzed with Image-Pro software (Mediacybemetics). The number of vessel branch points contained in a circular region equal to the filter disk were counted. One image from each of 8-10 CAM preparations for each treatment condition was counted, and in addition each experiment was performed 3 times.
Ten-day-old chick embryos were purchased from SPAFAS (Preston, Conn.) and were incubated at 37° C. with 55% relative humidity. Chick CAM assays were performed as previously described.

With `N[C@@H](Cc1cc(I)c(Oc2cc(I)c(O)c(I)c2)c(I)c1)C(=O)O` [T4, L-thyroxine] the “promotion of generation of new blood vessels from existing vessels” value was “two- to three-fold”.
